“Also recorded” adds a separate entry of the source.
Columns and labels:
human macrophages = experiment: sIL-15Rα secretion by human macrophages cultured with IFX, etanercept, GM-6001; type: cell-based; conditions: for sIL-15Rα secretion: human macrophages, 8 h; for effect on sIL-15Rα secretion by macrophages: versus macrophages cultured without the agent
Protocol: (§1) The quantification of sIL-15Rα and IL-15 was determined as previously described (Mortier et al. J Immunol 2004; 173:1681-8). Sandwich RIAs were set up in which the goat anti-human IL-15Rα Ab AF247 or the mouse anti-human IL-15 Mab247 (R&D) was used as capture Ab and radio-iodinated anti-human IL-15Rα Ab M161 (GenMab; Copenhagen, Denmark) or radio-iodinated mouse anti human IL-15 BE-29 (Diaclone: Besançon, France) was used as tracer. A purified recombinant sIL-15Rα protein (Bernard et al. J Biol Chem 2004; 279:24313-22) and recombinant IL-15 (Peprotech) were used as standards. Capture Abs were coated (5 μg/mL; 50 μL/well) to high-adsorption Nunc maxisorp plates (Fisher Bioblock Scientific, Illkirch, France). Wells were saturated with PBS-BSA 0.5% for 15 min and samples (50 μL/well) were incubated for 1 h at 4° C. The M161 or BE-29 mAbs were iodinated using the iodogen method and then added (1 nM, 50 μL/well) for 1 h at 4° C. Supernatants of each well were collected and the wells washed twice with PBS. The radioactivity associated to the wells (bound fraction) and contained in the supernatants and washes (unbound fraction) were determined.
Human monocytes were isolated from blood samples of healthy donors. PBMC were collected after Ficoll-Hypaque density centrifugation, resuspended at 7×10^6 cells/mL and allowed to adhere in culture flasks (RPMI 1640 supplemented with L-glutamine, streptomycin, penicillin, 10% FCS) for 1 h 30 at 37° C. Nonadherent cells were removed and adherent cells were washed five times with PBS. Monocytes were further differentiated for 5 days in the same medium supplemented with GM-CSF (100 ng/mL). […] After incubation, supernatants were obtained by centrifugation.

patients with active CD = experiment: Clinical response and CDAI in active CD patients treated with IFX; type: in vivo, human
Protocol: Clinical response for patients treated for perineal disease was assessed by the disappearance of draining fistulas. Blood samples were taken before each infusion and were centrifuged and stored at −80° C. Blood samples were also collected in 37 healthy volunteers. Forty patients with active CD were included in the study (12 males, 28 females, mean age 37.8 years). According to the Montreal classification, the disease was predominantly located into the colon (L2) or the ileocolon (L3) in 62.5 and 32.5% respectively and the disease was mostly non-stricturing and non-penetrating (B1). […] Six patients were treated by a combination of steroids and immunosuppressors, 3 patients received only steroids, 30 only immunosuppressors. Treatments were not modified except steroids which were always stopped between the first and the third infusion. There were no clinical and demographic differences between patients who experienced a response or not to IFX.

TNFα = experiment: Serum TNFα of CD patients before/after IFX (WEHI 164 XTT bio-assay); type: in vivo, human
Protocol: TNFα concentrations were measured in the serum of 43 patients (33 responder patients, 10 non-responders). Quantification TNFα was performed by the XTT method using the murine cell line WEHI 164 (ATCC N^o CRL1751) (Espevik et al. J Immunol Methods 1986; 95:99-105). Cells were seeded in 96-well plates (3×10^4 cells/50 μL/well) and grown at 37° C. in RPMI 1640 supplemented with […] of glutamine, 10% heat-inactivated FCS, LiCl and actinomycin D. Sera from CD patients and healthy volunteers were serially diluted, added to wells and a purified recombinant TNFα (R&D) was used as standard. After 20 h of culture, 50 μL/well of XTT and electron coupling reagent was added and cell survival was determined by measuring the optical density at 450 nm. The sensitivity of the assay was 0.10 pg/mL. The TNFα upper normal limit was calculated by the mean+2 SD of the values obtained in the healthy volunteers.

IL-15 = experiment: Serum IL-15 of CD patients before/after IFX (RIA); type: in vivo, human
Protocol: as §1
The upper normal value of IL-15 (6.1 pM) was calculated by the mean+2 SD of the values measured in healthy volunteers.

sIL-15Rα = experiment: Serum sIL-15Rα of CD patients before/after IFX (RIA); type: in vivo, human; conditions: responder patients
Protocol: as §1

[1] = system: soluble and cell-surface TNFα; conditions: cited from earlier work
soluble and cell-surface TNFα, sequence (P01375 77-233 limits assumed): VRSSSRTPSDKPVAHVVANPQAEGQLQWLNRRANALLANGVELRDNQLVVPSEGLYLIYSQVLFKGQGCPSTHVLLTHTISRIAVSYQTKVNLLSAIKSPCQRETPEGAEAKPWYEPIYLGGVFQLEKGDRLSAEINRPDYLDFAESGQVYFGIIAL

CD = conditions: in vivo; cited from earlier work
[2] = experiment with GM-6001 0.2 nM, IFX 0.01 μg/mL, control 1.4±0.9 pM
[3] = 0.01 μg/mL IFX or etanercept, cells without IFX 2.0±0.6 pM
[4] = according to TNF and CRP levels and CDAI, 40 patients, 5 treated twice (45 courses)

Compound	inducing effect of IFX on sIL-15Rα secretion (human macrophages; GM-6001 added with IFX)	basal sIL-15Rα secretion (human macrophages; GM-6001 alone versus control cells)	sIL-15Rα secretion (human macrophages; [2])	sIL-15Rα secretion (human macrophages; [3])	effect on sIL-15Rα secretion by macrophages (human macrophages)	patients classified as non-responders to IFX (patients with active CD; [4])	patients classified as responders to IFX (patients with active CD; [4])	patients with mucosal healing (patients with active CD; three biopsied CD patients, all with clinical responses)	non-responder patients in whom TNF remained above the control value (TNFα; week 6, 9/10)	responder patients with individual TNFα values dropping to control ranges (TNFα; week 6, 20/33)	responder patients in whom TNFα decreased (TNFα; week 6, 31/33)	median IL-15 levels after IFX (IL-15; non-responder patients, serum)	patients in whom IL-15 was undetectable after IFX (IL-15; responder patients, 15/35, before IFX 26% (9/35))	patients in whom IL-15 dropped below the control value (IL-15; responder patients, 29/35, after IFX)	increase of the proportion of patients with detectable sIL-15Rα after IFX (sIL-15Rα)	binding to soluble and cell-surface TNFα [1]	efficacy in CD (CD)
CNC(=O)[C@H](Cc1c[nH]c2ccccc12)NC(=O)[C@@H](CC(=O)NO)CC(C)C [GM-6001]	completely inhibited	not modified; also recorded: did not affect	4.5 ± 3.0 pM	–	–	–	–	–	–	–	–	–	–	–	–	–	–
IFX: anti-TNFα monoclonal antibody, a mouse-human chimeric whole antibody (Remicade; Centocor)	–	–	22.4 ± 2.0 pM	18.0 ± 1.2 pM	increased significantly; also recorded: induced; also recorded: markedly increased	10 patients	35 patients	two	90%	61%	94%	not modified	43%	83%	38%	high affinity and specificity	–
etanercept	–	–	–	6.3 ± 0.9 pM	did not significantly affect; also recorded: did not induce	–	–	–	–	–	–	–	–	–	–	–	inefficient in CD; also recorded: poor efficacy
